Data on eleven compounds can be found in patent publication US20250313572A1, “MACROCYCLIC MCL-1 INHIBITORS AND METHODS OF USE” (AbbVie Inc., priority 2017, published 2025).

The target in one test is GST-MCL-1 (Homo sapiens, UniProt Q07820). Briefly: TR-FRET MCL-1 binding assay (competition with probe F-Bak). In short, it runs like this: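 Displacement of F-Bak from GST-MCL-1 is detected by time-resolved FRET with a Tb-labelled anti-GST antibody, with excitation 340/35 nm and emission 520/525 and 495/510 nm, after 2 hours at room temperature. Compounds were titrated in 11 three-fold steps starting at 25 μM final, in buffer alone or in 10% HS.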
Chain of GST-MCL-1 (Q07820 whole entry): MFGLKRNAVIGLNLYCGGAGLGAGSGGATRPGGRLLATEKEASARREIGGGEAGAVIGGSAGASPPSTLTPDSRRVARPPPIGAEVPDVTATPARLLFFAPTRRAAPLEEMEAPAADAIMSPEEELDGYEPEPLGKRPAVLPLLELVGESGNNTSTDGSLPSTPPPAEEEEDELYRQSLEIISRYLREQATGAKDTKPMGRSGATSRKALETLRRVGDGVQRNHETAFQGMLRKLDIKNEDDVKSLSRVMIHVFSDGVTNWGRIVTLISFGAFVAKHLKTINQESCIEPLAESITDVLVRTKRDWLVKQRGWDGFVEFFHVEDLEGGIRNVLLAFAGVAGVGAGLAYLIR
In general terms: In TR-FRET formats the signal depends on donor and acceptor labels being close together.

Test [1] relates to AMO-1 human multiple myeloma tumor cell line. Briefly: AMO-1 cell viability assay (CellTiter-Glo, 24 hours). Format: cell-based. Conditions: Homo sapiens, AMO1, 24 h, read-out: AMO-1 Viability IC50 (μM, 10% FBS), 10% FBS, 24 hours of compound treatment.
For test [2], the system named is NCI-H929 human multiple myeloma tumor cell line. The test can be described thus: NCI-H929 cell viability assay (CellTiter-Glo, 24 hours). The test is classed as cell-based. The settings on record: Homo sapiens, NCI-H929, 24 h, read-out: H929 Viability IC50 (μM, 10% FBS), 10% FBS, 24 hours of compound treatment. A general note: Cellular ATP, detected with luciferase, serves as a proxy for viable cell number.

[3] abbreviates: MCL-1 Binding Ki (nM, 10% HS), in the presence of 10% HS (human serum).
Setting [4] is: without HS, read-out: MCL-1 Binding Ki.

Like-named read-outs stand apart in the source and are kept apart here.

By Ki is commonly meant a measure of affinity in units of concentration, obtained from inhibition or displacement. Usually IC50 stands for the concentration that inhibits the measured activity by half. Take `Cc1c(Cl)c2c(Cl)c(C)c1-c1c(-c3ccc(F)cc3)sc3ncnc(c13)O[C@@H](C(=O)O)Cc1cc(ccc1OCc1ccnc(N3CCS(=O)(=O)CC3)n1)OC[C@@H](CN1CCN(C)CC1)O2` [Example 75, (7R,16R)-19,23-dichloro-10-{[2-(1,1-dioxo-1λ^6-thiomorpholin-4-yl)pyrimidin-4-yl]methoxy}-1-(4-fluorophenyl)-20,22-dimethyl-16-[(4-methylpiperazin-1-yl)methyl]-7,8,15,16-tetrahydro-18,21-etheno-9,13-(metheno)-6,14,17-trioxa-2-thia-3,5-diazacyclononadeca[1,2,3-cd]indene-7-carboxylic Acid]: the Ki on GST-MCL-1 (setting [3]) is 2.67 nM; on GST-MCL-1 (setting [4]), 0.375 nM. For the same compound, the 50% inhibitory concentration (IC50) in test [1] was found to be 0.00386 µM; in test [2] it was 0.00914 µM.

For `COCCOCCOCCOCCOCCOCC1(c2nccc(COc3ccc4cc3C[C@H](C(=O)O)Oc3ncnc5sc(-c6ccc(F)cc6)c(c35)-c3c(C)c(Cl)c(c(Cl)c3C)O[C@H](CN3CCN(C)CC3)CO4)n2)CCCC1` [Example 76, (7R,16R)-19,23-dichloro-1-(4-fluorophenyl)-10-({2-[1-(2,5,8,11,14,17-hexaoxaoctadecan-1-yl)cyclopentyl]pyrimidin-4-yl}methoxy)-20,22-dimethyl-16-[(4-methylpiperazin-1-yl)methyl]-7,8,15,16-tetrahydro-18,21-etheno-13,9-(metheno)-6,14,17-trioxa-2-thia-3,5-diazacyclononadeca[1,2,3-cd]indene-7-carboxylic Acid], the inhibition constant (Ki) worked out at 0.634 nM at GST-MCL-1 (setting [3]) and 0.16 nM at GST-MCL-1 (setting [4]). For the same compound, the half-inhibitory concentration (IC50) was found to be 0.000409 µM in test [1] and 0.000648 µM in test [2].

`Cc1c(Cl)c2c(Cl)c(C)c1-c1c(-c3ccc(F)cc3)sc3ncnc(c13)O[C@@H](C(=O)O)Cc1cc(ccc1OCc1ccnc(C3(COCCOC[C@H]4COCCO4)CCC3)n1)OC[C@@H](CN1CCN(C)CC1)O2` [Example 77, (7R,16R)-19,23-dichloro-10-[(2-{1-[(2-{[(2R)-1,4-dioxan-2-yl]methoxy}ethoxy)methyl]cyclobutyl}pyrimidin-4-yl)methoxy]-1-(4-fluorophenyl)-20,22-dimethyl-16-[(4-methylpiperazin-1-yl)methyl]-7,8,15,16-tetrahydro-18,21-etheno-13,9-(metheno)-6,14,17-trioxa-2-thia-3,5-diazacyclononadeca[1,2,3-cd]indene-7-carboxylic Acid]: the inhibition constant Ki at GST-MCL-1 (setting [3]) amounted to 0.325 nM; on GST-MCL-1 (setting [4]), 0.089 nM. Also, the values for the half-inhibitory concentration (IC50) in test [1] and in test [2] were 0.000193 µM and 0.000405 µM, respectively.

Consider `Cc1c2ccc(c1Cl)O[C@H](CN1CCN(C)CC1)COc1ccc(OCc3ccnc(N4CCC5(CC4)CC(F)(F)CO5)n3)c(c1)C[C@H](C(=O)O)Oc1ncnc3sc(-c4ccc(F)cc4)c-2c13` [Example 78, (7R,16R)-19-chloro-10-{[2-(3,3-difluoro-1-oxa-8-azaspiro[4.5]decan-8-yl)pyrimidin-4-yl]methoxy}-1-(4-fluorophenyl)-20-methyl-16-[(4-methylpiperazin-1-yl)methyl]-7,8,15,16-tetrahydro-18,21-etheno-13,9-(metheno)-6,14,17-trioxa-2-thia-3,5-diazacyclononadeca[1,2,3-cd]indene-7-carboxylic Acid], for which the Ki on GST-MCL-1 (setting [3]) was 16 nM; at GST-MCL-1 (setting [4]), 2.28 nM. The IC50 came out at 0.000935 µM in test [1] and 0.00552 µM in test [2].

With `COC1CC2(C1)CN(c1nccc(COc3ccc4cc3C[C@H](C(=O)O)Oc3ncnc5sc(-c6ccc(F)cc6)c(c35)-c3c(C)c(Cl)c(c(Cl)c3C)O[C@H](CN3CCN(C)CC3)CO4)n1)C2` [Example 79, (7R,16R)-19,23-dichloro-1-(4-fluorophenyl)-10-{[2-(6-methoxy-2-azaspiro[3,3]heptan-2-yl)pyrimidin-4-yl]methoxy}-20,22-dimethyl-16-[(4-methylpiperazin-1-yl)methyl]-7,8,15,16-tetrahydro-18,21-etheno-9,13-(metheno)-6,14,17-trioxa-2-thia-3,5-diazacyclononadeca[1,2,3-cd]indene-7-carboxylic Acid], the inhibition constant Ki at GST-MCL-1 (setting [3]) came out at 1 nM; at GST-MCL-1 (setting [4]) it was 0.088 nM. Moreover, the 50% inhibitory concentration (IC50) in test [1] was determined as 0.000418 µM; in test [2], 0.00163 µM.

On to `Cc1c(Cl)c2c(Cl)c(C)c1-c1c(-c3ccc(F)cc3)sc3ncnc(c13)O[C@@H](C(=O)O)Cc1cc(ccc1OCc1ccnc(C(C)(C)COCCOC[C@H]3COCCO3)n1)OC[C@@H](CN1CCN(C)CC1)O2` [Example 80, (7R,16R)-19,23-dichloro-10-({2-[1-(2-{[(2R)-1,4-dioxan-2-yl]methoxy}ethoxy)-2-methylpropan-2-yl]pyrimidin-4-yl}methoxy)-1-(4-fluorophenyl)-20,22-dimethyl-16-[(4-methylpiperazin-1-yl)methyl]-7,8,15,16-tetrahydro-18,21-etheno-13,9-(metheno)-6,14,17-trioxa-2-thia-3,5-diazacyclononadeca[1,2,3-cd]indene-7-carboxylic Acid], for which the inhibition constant Ki at GST-MCL-1 (setting [3]) worked out at 0.797 nM; at GST-MCL-1 (setting [4]), 0.107 nM. The results for the IC50 in test [1] and in test [2] were 0.000189 µM and 0.000954 µM, respectively.

Consider `COCCOCCOCCOCCOCCO[C@H]1CC[C@@H](c2nccc(COc3ccc4cc3C[C@H](C(=O)O)Oc3ncnc5sc(-c6ccc(F)cc6)c(c35)-c3c(C)c(Cl)c(c(Cl)c3C)O[C@H](CN3CCN(C)CC3)CO4)n2)CC1` [Example 82, (7R,16R)-19,23-dichloro-1-(4-fluorophenyl)-20,22-dimethyl-16-[(4-methylpiperazin-1-yl)methyl]-10-[(2-{(1s,4s)-4-[(2,5,8,11,14-pentaoxahexadecan-16-yl)oxy]cyclohexyl}pyrimidin-4-yl)methoxy]-7,8,15,16-tetrahydro-18,21-etheno-13,9-(metheno)-6,14,17-trioxa-2-thia-3,5-diazacyclononadeca[1,2,3-cd]indene-7-carboxylic Acid], for which the Ki at GST-MCL-1 (setting [3]) is 0.135 nM; at GST-MCL-1 (setting [4]) it was 0.014 nM. Further, the results for the 50% inhibitory concentration (IC50) in test [1] and in test [2] were 0.000563 µM and 0.00109 µM, respectively.

Take `COCCOCCOCCOCCOCCOCC1(c2nccc(COc3ccc4cc3C[C@H](C(=O)O)Oc3ncnc5sc(-c6ccc(F)cc6)c(c35)-c3c(C)c(Cl)c(c(Cl)c3C)O[C@H](CN3CCN(C)CC3)CO4)n2)CCCCC1` [Example 88, (7R,16R)-19,23-dichloro-1-(4-fluorophenyl)-10-({2-[1-(2,5,8,11,14,17-hexaoxaoctadecan-1-yl)cyclohexyl]pyrimidin-4-yl}methoxy)-20,22-dimethyl-16-[(4-methylpiperazin-1-yl)methyl]-7,8,15,16-tetrahydro-18,21-etheno-13,9-(metheno)-6,14,17-trioxa-2-thia-3,5-diazacyclononadeca[1,2,3-cd]indene-7-carboxylic Acid]: the Ki is 0.143 nM on GST-MCL-1 (setting [3]) and 0.033 nM at GST-MCL-1 (setting [4]). Besides, the IC50 turned out to be 0.00117 µM in test [1] and 0.00206 µM in test [2].

With `COCCOCCOCCOCCOc1nccc(COc2ccc3cc2C[C@H](C(=O)O)Oc2ncnc4sc(-c5ccc(F)cc5)c(c24)-c2c(C)c(Cl)c(c(Cl)c2C)O[C@H](CN2CCN(C)CC2)CO3)n1` [Example 89, (7R,16R)-19,23-dichloro-1-(4-fluorophenyl)-20,22-dimethyl-16-[(4-methylpiperazin-1-yl)methyl]-10-({2-[(2,5,8,11-tetraoxatridecan-13-yl)oxy]pyrimidin-4-yl}methoxy)-7,8,15,16-tetrahydro-18,21-etheno-13,9-(metheno)-6,14,17-trioxa-2-thia-3,5-diazacyclononadeca[1,2,3-cd]indene-7-carboxylic Acid], the inhibition constant Ki turned out to be 0.485 nM on GST-MCL-1 (setting [3]) and 0.067 nM on GST-MCL-1 (setting [4]). Besides, the IC50 in test [1] is 0.00262 µM; in test [2], 0.00299 µM.

Regarding `COCCOCCOCCOc1ccc(-c2nccc(COc3ccc4cc3C[C@H](C(=O)O)Oc3ncnc5sc(C6CCCCC6)c(c35)-c3c(C)c(Cl)c(c(Cl)c3C)O[C@H](CN3CCN(C)CC3)CO4)n2)cc1` [Example 90, (7R,16R)-19,23-dichloro-1-cyclohexyl-10-{[2-(4-{2-[2-(2-methoxyethoxy)ethoxy]ethoxy}phenyl)pyrimidin-4-yl]methoxy}-20,22-dimethyl-16-[(4-methylpiperazin-1-yl)methyl]-7,8,15,16-tetrahydro-18,21-etheno-13,9-(metheno)-6,14,17-trioxa-2-thia-3,5-diazacyclononadeca[1,2,3-cd]indene-7-carboxylic Acid], the Ki on GST-MCL-1 (setting [3]) was found to be 3.41 nM; on GST-MCL-1 (setting [4]) it was 0.044 nM. Also, the results for the IC50 in test [1] and in test [2] were 0.000183 µM and 0.000787 µM, respectively.

For `Cc1c(Cl)c2c(Cl)c(C)c1-c1c(-c3ccc(F)cc3)sc3ncnc(c13)O[C@@H](C(=O)O)Cc1cc(ccc1OCc1ccnc(N3CCC(F)(COCCOCC4COCCO4)CC3)n1)OC[C@@H](CN1CCN(C)CC1)O2` (stereo partly drawn) [Example 91, (7R,16R)-19,23-dichloro-10-({2-[4-({2-[(1,4-dioxan-2-yl)methoxy]ethoxy}methyl)-4-fluoropiperidin-1-yl]pyrimidin-4-yl}methoxy)-1-(4-fluorophenyl)-20,22-dimethyl-16-[(4-methylpiperazin-1-yl)methyl]-7,8,15,16-tetrahydro-18,21-etheno-13,9-(metheno)-6,14,17-trioxa-2-thia-3,5-diazacyclononadeca[1,2,3-cd]indene-7-carboxylic Acid], the Ki at GST-MCL-1 (setting [3]) amounted to 2.1 nM; at GST-MCL-1 (setting [4]), 0.231 nM. For the same compound, the figures for the IC50 in test [1] and in test [2] were 0.00072 µM and 0.00192 µM, respectively.
